Patent EP1897937A1, “Method of culturing NPCs” (NeuroProgen GmbH Leipzig, priority 2006, dated 2008)
Read-outs that look alike come from different tables or passages of the source.

Assays:
Type in all cases: cell-based, human
hmNPCs [1] = assay: Long-term proliferation: number of living cells (hemocytometer, trypan blue exclusion)
Method: (§1) To determine long-term proliferation, hmNPCs were plated and expanded for 2 passages with or without addition of various agents (see below) to the custom expansion media containing the growth factors EGF and FGF2. Different fetal midbrain tissues were included in this study. At the end of the proliferation period, differentiation of hmNPCs was induced via replacement of expansion media with mitogen-free media containing 1% FCS, 5 µM forskoline (Sigma-Aldrich Chemie GmbH Munich, Germany), and 100 pg/ml IL-1β (Sigma). The differentiation and expansion media were supplemented with different drugs as appropriate. Prior to immunocytochemistry or protein extraction, hmNPCs were allowed to differentiate for 1 week. To determine short-term proliferation via Ki67 immunostaining, the cells were seeded into 24-well plates (70,000 cells/well) and left overnight to rest. P2 receptor agonists (ATP, UTP, ATP + UTP, ADP, ADPβS) were supplied daily for 5 consecutive days. Ki67/nestin double-positive cells were counted in 8 randomly selected fields of nucleotide-treated or untreated samples. For the assessment of MAPK phosphorylation the cells were kept free of mitogens for 2 d prior to addition of the MEK-inhibitor in expansion media. In addition, the MEK-inhibitor was added during the differentiation period 15 min before UTP administration.
(§2) UTP, UDP, ATP, ADP, ADPβS and suramin were purchased from Sigma (Sigma-Aldrich Chemie GmbH Munich, Germany). UTP and UDP were applied at different concentrations (1 µM, 10 µM, 100 µM), ATP at 100 µM, ADP at 100 µM, and ADPβS at100 µM. During expansion of the cells, the nucleotides were renewed once a week with every media change, unless otherwise stated. They were applied once at the beginning of the differentiation period. The P2 receptor antagonist suramin (10 µM) was added to expansion media 30 min prior to addition of UTP (100 µM). The stock solution of the MEK1/2 inhibitor U0126 (Promega Corporation, Mannheim, Germany) was prepared in dimethyl sulfoxide (DMSO) at a concentration of 10 mM. The stock solution was then diluted in 0.1 M PBS to obtain a concentration of 1 mM. MEK inhibitor (final concentration 10 µM) was added to mitogen-free expansion media, 15 min before UTP treatment (1 µM) of hmNPCs.
Cell counting of control (untreated) and treated hmNPCs was performed using a hemocytometer. Adherent cells were collected by detachment with accutase™ (PAA Laboratories, Pasching, Austria) for 10 min at 37°C. […] The number of total and trypan blue-positive cells was then determined by counting at least 300 cells per sample in a hemocytometer.

hmNPCs [2] = assay: Dopaminergic differentiation: counting of TH-positive cells by immunocytochemistry
Method: as §1, §2
Expanded or one week differentiated hmNPCs were fixed with 4% paraformaldehyde in PBS for 10 min at room temperature and washed with PBS, counterstained with the DNA-binding dye 4'-6-Diamidino-2-phenylindole (DAPI, 2 µg/ml in PBS) for 15 min at room temperature, washed twice in PBS followed by incubation in blocking buffer (10% FCS, 0.2% Triton-X 100 in PBS, pH 7.2) for 30 min at room temperature. After incubation with a primary antibody (over night at 4°C in blocking buffer), the cells were incubated with fluorescent secondary antibodies, Alexa Fluor® 488 conjugate or Alexa Fluor® 594 conjugate (Molecular Probes, Eugene, USA). Cover-slips were mounted onto glass slides and examined under a fluorescence microscope (Zeiss Axiovert 200). Acquisition of the cells was performed using the Image-analysis software AxioVision 4 (Carl Zeiss AG, Jena, Germany). The following primary antibodies were used for immunofluorescence: rabbit polyclonal anti-β-tubulin III (anti-Tuj1) antibody, rabbit polyclonal anti-tyrosine hydroxylase antibody , mouse monoclonal anti-nestin antibody (Pharmingen, San Diego, CA, USA), rabbit polyclonal anti-Ki67 antigen antibody (Novocastra Laboratories Ltd, Newcastle upon Tyne, UK). Estimation of the TH-positive cell numbers was performed by counting of cells among approximately 1000 differentiated cells in total within 6 randomly selected fields.

ERK1/2 = ERK1/2 (MAPK) phosphorylation by Western blot
Method: as §1, §2
In order to prepare protein extracts, hmNPCs were collected, washed with ice-cold PBS and lysed in buffer [10 mM HEPES-KOH (pH 7.9), 10 mM KCI, 1.5 mM MgCl2, 0.1% NP-40], supplemented with protease inhibitor cocktail (Roche). After a brief centrifugation at 4°C/10 000×g, protein concentrations and protein yield from extracts were determined using the Bradford method (Bio-Rad, Hercules, CA, USA). To preserve the phosphorylation state of proteins, extracts for the MAPK experiment were obtained using the PhosphoSafe™ extraction reagent containing phophatase inhibitors (Novagen). […] Membranes were blocked with 5% (wt/vol) nonfat dry milk in PBS-T (PBS, 0.1% (vol/vol) Tween 20) for 2 h at room temperature and subsequently incubated with the desired primary antibody (diluted in PBS containing 5% non-fat milk and 0.1% Tween 20) overnight at 4 °C with gentle agitation. The membrane was incubated with horseradish peroxidase-coupled secondary antibody for 1 h at room temperature. […] The chemiluminescence was quantified using the AIDA, two-dimensional densitometry software (Raytest lsotopenmeb, Straubenhardt, Germany).

O=c1ccn([C@@H]2O[C@H](COP(=O)(O)OP(=O)(O)OP(=O)(O)O)[C@@H](O)[C@H]2O)c(=O)[nH]1 [UTP, uridine 5'-triphosphate]
number of living cells (hmNPCs [1]; 100 µM each, 2 weeks in expansion media, on coapplication ADP 30 min before UTP, 20160 min): 110 ± 6% | activity at 1 µM (hmNPCs [1]; Homo sapiens, 336 h, 1 µM, 2 passages (approximately 2 weeks of expansion), control 100 ± 5%, read-out: number of living cells as compared to controls): 152 ± 6% | performance of proliferating hmNPCs grown without mitogens (hmNPCs [1]; without EGF and FGF2, 1 µM once in 5 days): performed slightly better | contribution of TH-immunopositive cells to the total of Tuj1-immunopositive cells (hmNPCs [2]; 100 µM, 2 weeks of expansion followed by 1 week of differentiation): increased | activity at 100 µM (hmNPCs [2]; Homo sapiens, 168 h, 100 µM each, once, only during the differentiation period of one week, read-out: number of TH-positive (dopaminergic) cells as compared to control): 239 ± 27% | activity at 1 µM (hmNPCs [2]; Homo sapiens, 1 µM, 2 weeks of expansion and one week of differentiation, read-out: number of TH-positive cells): 211 ± 30% | activity at 100 µM (hmNPCs [2]; Homo sapiens, 100 µM during proliferation and differentiation, read-out: number of TH-positive cells): 267 ± 20% | ERK1/2 (MAPK) phosphorylation (ERK1/2; 1 µM, 30 min, expansion media, mitogen-free): phosphorylated | expression of phosphorylated ERK1/2 (ERK1/2; 100 µM, one week of differentiation): increased
